Test results taken from patent US5089623A, “Certain imidate insecticides” (Imperial Chemical Industries Plc, priority 1990, dated 1992).

Key:
Type in all cases: in vivo
[1] = system: Housefly [Musca domestica]; test: Housefly insecticidal test (HF); settings: per 25 female houseflies, 48 hours
[2] = system: Tobacco Budworm [Heliothis virescens (Fabricius)] eggs; test: Tobacco budworm egg test (TBW-E); settings: percent in solution
Text: Eggs: Paper towel patches of 2-day old eggs of the tobacco budworm were dipped in acetone solutions of the test compound and placed in petri dishes containing a portion of larval rearing medium. […] Test concentrations ranged from 0.1% downward.

[3] = system: Cabbage Looper [Trichoplusia ni (Hubner)]; test: Cabbage looper test (CL); settings: second-instar larvae, 3-5 days, percent in solution

SMILES	LC50 HF [1]	LC50 TBW E [2]	LC50 CL [3]
CC(C)C(=Nc1c(Br)cc(F)cc1Br)OCc1cccc(Oc2ccccc2)c1 [Compound 130]	> 100 µg	> 0.1%	0.005%
Cc1cc(Br)ccc1N=C(OCc1cccc(Oc2ccccc2)c1)C(C)C [Compound 133]	66 µg	0.1%	0.005%
CC(C)(C)C(=Nc1cccc(Br)c1)OCc1cccc(Oc2ccccc2)c1 [Compound 134]	> 100 µg	> 0.1%	0.015%
CC(C)C(=Nc1cccc(I)c1)OCc1cccc(Oc2ccccc2)c1 [Compound 136]	9 µg	0.08%	0.004%
CSc1ccc(N=C(OCc2cccc(Oc3ccccc3)c2)C(Cl)Cl)cc1 [Compound 141]	35 µg	> 0.1%	< 0.1%
Cc1cccc(N=C(OCc2cccc(Oc3ccccc3)c2)C(C)C)c1C [Compound 148]	18 µg	0.025%	0.0025%
COc1ccc(N=C(OCc2cccc(Oc3ccccc3)c2)C(C)C)c(C)c1 [Compound 149]	17 µg	0.05%	0.007%
COc1ccc(C)cc1N=C(OCc1cccc(Oc2ccccc2)c1)C(C)C [Compound 150]	89 µg	> 0.1%	0.01%
CCCCc1ccc(N=C(OCc2cccc(Oc3ccccc3)c2)C(C)C)cc1 [Compound 152]	> 100 µg	> 0.1%	0.009%
CCC(=Nc1ccc(CC)cc1)OCc1cccc(Oc2ccccc2)c1 [Compound 157]	25 µg	> 0.1%	0.009%
Cc1ccc(N=C(OCc2cccc(Oc3ccccc3)c2)C(C)C)cc1C [Compound 158]	9 µg	0.1%	0.003%
CCOc1ccc(N=C(OCc2cccc(Oc3ccccc3)c2)C(C)(C)C)cc1 [Compound 164]	> 100 µg	> 0.1%	0.005%
CC(C)c1ccc(N=C(OCc2cccc(Oc3ccccc3)c2)C(C)(C)C)cc1 [Compound 165]	> 100 µg	> 0.1%	0.007%
CSc1cccc(N=C(OCc2cccc(Oc3ccccc3)c2)C(C)C)c1 [Compound 166]	22 µg	> 0.1%	0.009%
Cc1ccc(N=C(OCc2cccc(Oc3ccccc3)c2)C(C)(C)C)cc1C [Compound 167]	> 100 µg	> 0.1%	0.02%
CCOC(=O)c1cccc(N=C(OCc2cccc(Oc3ccccc3)c2)C(C)(C)C)c1 [Compound 168]	> 100 µg	> 0.1%	0.1%
COc1ccc(N=C(OCc2cccc(Oc3ccccc3)c2)C(C)C)cc1OC [Compound 169]	10 µg	> 0.1%	0.009%
CC(=O)c1cccc(N=C(OCc2cccc(Oc3ccccc3)c2)C(C)C)c1 [Compound 170]	37 µg	> 0.1%	0.1%
CCOc1cccc(N=C(OCc2cccc(Oc3ccccc3)c2)C(C)C)c1 [Compound 171]	80 µg	> 0.1%	0.01%
CC(C)(C)C(=Nc1cccc([N+](=O)[O-])c1)OCc1cccc(Oc2ccccc2)c1 [Compound 175]	> 100 µg	> 0.1%	0.018%
CC(C)C(=Nc1ccc2c(c1)OC(C)(C)O2)OCc1cccc(Oc2ccccc2)c1 [Compound 182]	28 µg	0.04%	0.0006%
CC(C)C(=Nc1ccc2c(c1)OCO2)OCc1cccc(Oc2ccccc2F)c1 [Compound 183]	10 µg	0.075%	0.00075%
